According to patent US20260337187A1, “COMPOUNDS FOR TREATMENT OF INFLAMMATORY PROCESSES” (THORNE LIMITED, priority 2022, published 2026):
Like-named read-outs stand apart in the source and are kept apart here.

What was measured:
Assay type in all cases: cell-based
primary human B cells = assay: B lymphocyte plasmablast development (CD38+/CD19low and CD138+ by FACS); conditions: 5 days; FIG. 4 (20 and 10 μM)
Protocol: The effect of two concentrations (from right to left: 20 and 10 μM) of B2 is shown in each plot in comparison to control (far left). Each symbol represents one experiment.
B lymphocyte plasmablast development: For human B lymphocyte plasmablast development, primary human B cells were isolated from buffy coat using the MACSxpress Buffy Coat Pan B Cell Isolation Kit (Miltenyi Biotec) as per manufacturer's instructions. The cells were cultured in RPMI in the presence of human transferrin (20 μg/ml), IL-21 (100 ng/ml), recombinant hCD40L (100 μg/ml), anti-HA (50 μg/ml), at a cell density of 5×10^4 cells/ml. Plasmablast formation after 5 days was measured by FACS using two sets of markers: CD38+/CD19low and CD138+ for two stages of plasmablast development.
To investigate the inhibition of B lymphocyte plasmablast development by B2, primary human B cells, isolated from buffy coat, were cultured in the presence of CD40, IL21, anti-IgM, and plasmablast formation measured by FACS using two sets of markers: CD38+/CD19low (FIG. 4, upper plot) and CD138+(FIG. 4, lower plot) for two stages of plasmablast development.

[1] = tested on: human primary eosinophils; assay: Eosinophil ROS production (PMA triggered, DHR-123, FACS); conditions: FIG. 7 (100, 50, 25 μM)
Protocol: The effect of 3 different concentrations (from right to left: 100, 50 and 25 μM) of B2 is shown in comparison to control (far left) and ROS triggered control (PMA; second from left); average of 3 experiments.
Eosinophil ROS production: Human primary eosinophils were purified from buffy coat, firstly by density gradient centrifugation on ficoll to isolate total peripheral blood mononuclear cell (PBMC), and then by negative selection using the eosinophil purification kit from Miltenyi Inc. as per manufacturer's instructions. The eosinophils were then resuspended in pre-warmed tissue culture media, which had been left in the incubator overnight to equilibrate, containing 25 μM dihydrorhodamine 123 (DHR-123) at a cell density of 1×10^6 cells/ml. The cells were then stimulated with phorbol 12-myristate 13-actetate (PMA) at a concentration of 1 μM in the presence or absence of B2 or DMSO for control in the incubator for 20 minutes and then immediately put on ice to stop the reaction. Levels of the oxidized DHR in the samples were measured by flow cytometry as described above in relation to neutrophil ROS production.
To investigate inhibition of eosinophil ROS production by B2, human primary eosinophils, isolated from fresh blood samples, were triggered to produce ROS by treatment with PMA, and ROS measured by FACS based on the conversion of dihydrorhodamine 123 to rhodamine 123 (FIG. 7).

[2] = tested on: Primary human pulmonary microvascular endothelial cells (HPMEC); assay: Neutrophil adhesion to endothelial cells; conditions: 10, 20 and 50 μM B2, TNF-α stimulated HPMEC (FIG. 11)
Source text: The number of adhered green-fluorescent labeled neutrophils per field of view normalized to the area covered by endothelial cells per field of view is shown. Three concentrations of B2 are shown next to the solvent (DMSO) control. An exemplary experiment out of three is shown.
Neutrophil adhesion to endothelial cells: Primary human pulmonary microvascular endothelial cells (HPMEC) were purchased from Promocell and maintained in endothelial cell media from Promocell as per the company's protocol. The endothelial cells were plated in flat bottom 96 well plastic plates at a concentration of 50,000 cells/well. After 24 h the endothelial cells were stimulated overnight by TNF-α (100 ng/ml) and the inhibitor. Neutrophils were isolated from whole blood using MACSxpress Neutrophil isolation kit. […] Samples were analyzed in triplicates and 3 fields of view were imaged per well. Cells per field of view were quantified using FiJi software.
To investigate the adhesion of neutrophils to endothelial cells, human primary neutrophils, were fluorescently labeled with 1 μM CellTracker dye and resuspended in HBS solution prior to addition of B2 or DMSO. Green fluorescent adherent cells were counted, the area covered by endothelial cell was measured, and the number of neutrophils adherent to endothelial cells normalized for the area covered by endothelial cells.

[3] = tested on: Primary human pulmonary microvascular endothelial cells (HPMEC); assay: Pulmonary endothelial cell cytokine release (TNFα triggered, cytokine array); conditions: for inhibition at 50 µM: Homo sapiens, Endothelial cell, 50 μM B2, activated by TNF
Protocol: Endothelial cell cytokine release: Primary human pulmonary microvascular endothelial cells (HPMEC) were purchased from Promocell and maintained in endothelial cell media from Promocell as per the company's protocol. To measure the release of inflammatory mediators HPMEC were cultured to confluence in a 12 well plate in 1 ml of endothelial cell media. Cells were then stimulated with TNFα at 100 ng/ml overnight in the presence or absence of B2 or control DMSO. The supernatant was then collected and inflammatory mediator levels were measured in it using the Cytokine XXL array from R&D systems according to manufacturer's instructions as described above.
Human primary pulmonary endothelial cells were triggered to produce cytokines by the pro-inflammatory cytokine TNFα. The levels of 105 cytokines in the cell culture supernatant were measured by the R&D Systems Human XL cytokine array and a fluorescence-based photometric read-out. The table lists cytokines whose production was reduced by >50% (left) or 20 to 50% upon treatment with 50 μM B2 (right).

## Cc1onc(-c2ccccc2Cl)c1C(=O)Nc1nc2ccc([N+](=O)[O-])cc2s1 [B2, 3-(2-chlorophenyl)-5-methyl-N-(6-nitrobenzo[d]thiazol-2-yl)isoxazole-4-carboxamide]
Primary human B cells
  human B cell plasmablast development: inhibition of human B cell plasmablast development
[1]
  production of reactive oxygen species (ROS) by human primary eosinophils: reduced production
[2]
  neutrophil adhesion to endothelial cells: inhibition of neutrophil adhesion to endothelial cells
[3]; *Poor dose response, only minor increase with TNF, read-out: FGF19 production, reduction
  inhibition at 50 µM: 20 to 50%
[3]; read-out: CCL2/MCP-1 production, reduction
  inhibition at 50 µM: 20 to 50%
[3]; read-out: CCL5/RANTES production, reduction
  inhibition at 50 µM: > 50%
[3]; read-out: CCL20/MIP-3 alpha production, reduction
  inhibition at 50 µM: 20 to 50%
[3]; read-out: CXCL1/GRO-alpha production, reduction
  inhibition at 50 µM: > 50%
[3]; read-out: CXCL5/ENA-78 production, reduction
  inhibition at 50 µM: > 50%
[3]; read-out: CXCL10/IP10 production, reduction
  inhibition at 50 µM: 20 to 50%
[3]; read-out: GMCSF production, reduction
  inhibition at 50 µM: > 50%
[3]; read-out: HGF production, reduction
  inhibition at 50 µM: > 50%
[3]; read-out: ICAM-1 production, reduction
  inhibition at 50 µM: > 50%
[3]; read-out: Pentraxin-3 production, reduction
  inhibition at 50 µM: 20 to 50%
[3]; read-out: TFF3 production, reduction
  inhibition at 50 µM: > 50%
[3]; read-out: VCAM-1 production, reduction
  inhibition at 50 µM: > 50%
[3]; TNFα, Table 1
  human pulmonary endothelial cell cytokine release profile: reducing specific pro-inflammatory cytokines
  secretion of several chemokines by endothelial cells: substantially reduced
  secretion of several soluble adhesion molecules by endothelial cells: reduced
[3]; activated by TNF, footnote * to FGF19
  FGF19 production, dose response: *Poor dose response, only minor increase with TNF.
